Test results as given in patent US20080039495A1, “Diamine Beta2 Adrenergic Receptor Agonists” (priority 2004, published 2008).
pEC50, pKi: −log10 of the molar value.

Experiments:
[1] = molecular target: T1, human β2 adrenergic receptor (Homo sapiens, UniProt P07550); assay: Radioligand binding assay (Test A); conditions: for pKi: [3H]dihydroalprenolol displacement, HEK-293 membranes, results expressed as pKi; for Selectivity β2/β1 (binding): ratio Ki(β1)/Ki(β2)
T1 construct: expressed in transfected cells; membrane preparation
Description: HEK-293 derived cell lines stably expressing cloned human β1 or β2 adrenergic receptors, respectively, were grown to near confluency in DMEM with 10% dialyzed FBS in the presence of 500 μg/mL Geneticin. The cell monolayer was lifted with Versene 1:5,000 (0.2 g/L EDTA in PBS) using a cell scraper. Cells were pelleted by centrifugation at 1,000 rpm, and cell pellets were either stored frozen at −80° C. or membranes were prepared immediately. For preparation, cell pellets were resuspended in lysis buffer (10 mM Tris/HCL pH 7.4 @ 4° C., one tablet of “Complete Protease Inhibitor Cocktail Tablets with 2 mM EDTA” per 50 mL buffer (Roche cat.# 1697498, Roche Molecular Biochemicals, Indianapolis, Ind.)) and homogenized using a tight-fitting Dounce glass homogenizer (20 strokes) on ice. The homogenate was centrifuged at 20,000×g, the pellet was washed once with lysis buffer by resuspension and centrifugation as above. The final pellet was resuspended in membrane buffer (75 mM Tris/HCl pH 7.4, […], 1 mM EDTA @ 25° C.). Protein concentration of the membrane suspension was determined by the method of Bradford (Bradford M M., Analytical Biochemistry, 1976, 72, 248-54). Membranes were stored frozen in aliquots at −80° C.
Binding assays were performed in 96-well microtiter plates in a total assay volume of 100 μL with 5 μg membrane protein for membranes containing the human β2 adrenergic receptor, or 2.5 μg membrane protein for membranes containing the human β1 adrenergic receptor in assay buffer (75 mM Tris/HCl pH 7.4 @ 25° C., 12.5 mM MgCl2, 1 mM EDTA, 0.2% BSA). […] Non-specific binding was determined in the presence of 10 μM unlabeled alprenolol. […] Filter plates were washed three times with filtration buffer (75 mM Tris/HCl pH 7.4 @ 4° C., 12.5 mM MgCl2, 1 mM EDTA) to remove unbound radioactivity. Plates were dried, 50 μL Microscint-20 liquid scintillation fluid (Packard BioScience Co., Meriden, Conn.) was added and plates were counted in a Packard Topcount liquid scintillation counter (Packard BioScience Co., Meriden, Conn.). Binding data were analyzed by nonlinear regression analysis with the GraphPad Prism Software package (GraphPad Software, Inc., San Diego, Calif.) using the 3-parameter model for one-site competition. The curve minimum was fixed to the value for nonspecific binding, as determined in the presence of 10 μM alprenolol. Ki values for compounds were calculated from observed IC50 values and the Kd value of the radioligand using the Cheng-Prusoff equation (Cheng Y, and Prusoff W H., Biochemical Pharmacology, 1973, 22, 23, 3099-108). The receptor subtype selectivity was calculated as the ratio of Ki(β1)/Ki(β2).
Binding results are expressed as the negative decadic logarithm of the Ki values, pKi. […]

human β2-adrenoceptor = molecular target: T2, human β2-adrenoceptor (Homo sapiens, UniProt P07550); assay: Whole-cell cAMP Flashplate assay, recombinant cell line (Test B); format: cell-based; conditions: for pEC50: HEK-293 cells expressing cloned human β2-adrenoceptor, cAMP; for Selectivity β2/β1 (functional): ratio EC50(β1)/EC50(β2); for Selectivity β2/β3 (functional): ratio EC50(β3)/EC50(β2)
T2 construct: expressed in transfected cells
Description: A HEK-293 cell line stably expressing cloned human β1 adrenergic receptor (clone H34.1) was grown to about 70%-90% confluency in medium consisting of DMEM supplemented with 10% FBS and 500 μg/mL Geneticin. A HEK-293 cell line stably expressing cloned human β2-adrenoceptor (clone H24.14) was grown in the same medium to full confluency. A CHO-K1 cell line stably expressing cloned human β3-adrenoceptor was grown to about 70%-90% confluency in Ham's F-12 medium supplemented with 10% FBS and with 800 μg/mL Geneticin added to every fifth passage. The day before the assay, cultures were switched to the same growth-media without antibiotics.
cAMP assays were performed in a radioimmunoassay format using the Flashplate Adenylyl Cyclase Activation Assay System with ^125I-cAMP (NEN SMP004, PerkinElmer Life Sciences Inc., Boston, Mass.), according to the manufacturers instructions.
On the day of the assay, cells were rinsed once with PBS, lifted with Versene 1:5,000 (0.2 g/L EDTA in PBS) and counted. Cells were pelleted by centrifugation at 1,000 rpm and resuspended in stimulation buffer prewarmed to 37° C. For cells expressing the β1-adrenoceptor, 10 nM ICI 118,551 were added to the stimulation buffer, and cells were incubated for 10 min at 37° C. Cells were used at final concentrations of 30,000, 40,000 and 70,000 cells/well for the β1-adrenoceptor-, the β2-adrenoceptor- and the β3-adrenoceptor expressing cells, respectively. Compounds were dissolved to a concentration of 10 mM in DMSO, then diluted to 1 mM in 50 mM Gly-HCl pH 3.0, and from there serially diluted into assay buffer (75 mM Tris/HCl pH 7.4 @ 25° C., 12.5 mM MgCl2, 1 mM EDTA, 0.2% BSA). Compounds were tested in the assay at 11 different concentrations, ranging from 10 μM to […]. Reactions were incubated for 10 min at 37° C. and stopped by addition of 100 μL ice-cold detection buffer. Plates were sealed, incubated over night at 4° C. and counted the next morning in a topcount scintillation counter (Packard BioScience Co., Meriden, Conn.). The amount of cAMP produced per mL of reaction was calculated based on the counts observed for the samples and cAMP standards, as described in the manufacturer's user manual. Data were analyzed by nonlinear regression analysis with the GraphPad Prism Software package (GraphPad Software, Inc., San Diego, Calif.) using the 3-parameter model for sigmoidal dose-response (Hill slope=1). Agonist potencies were expressed as pEC50 values. Functional β2/β1 selectivity was defined as the ratio EC50(β1)/EC50(β2), and correspondingly functional β2/β3 selectivity was defined as the ratio EC50(β3)/EC50(β2).

[2] = system: acetylcholine-induced bronchospasm; assay: Bronchoprotection against acetylcholine-induced bronchospasm in a guinea pig model (Test D); format: in vivo; conditions: inhalation
Description: Groups of 6 male guinea pigs (Duncan-Hartley (HsdPoc:DH) Harlan, Madison, Wis.) weighing between 250 and 350 g were individually identified by cage cards. Throughout the study animals were allowed access to food and water ad libitum.
Test compounds were administered via inhalation over 10 minutes in a whole-body exposure dosing chamber (R&S Molds, San Carlos, Calif.). The dosing chambers were arranged so that an aerosol was simultaneously delivered to 6 individual chambers from a central manifold. Following a 60 minute acclimation period and a 10 minute exposure to nebulized water for injection (WFI), guinea pigs were exposed to an aerosol of test compound or vehicle (WFI). These aerosols were generated from aqueous solutions using an LC Star Nebulizer Set (Model 22F51, PARI Respiratory Equipment, Inc. Midlothian, Va.) driven by a mixture of gases (CO2=5%, O2=21% and N2=74%) at a pressure of 22 psi. The gas flow through the nebulizer at this operating pressure was approximately 3 L/minute. The generated aerosols were driven into the chambers by positive pressure. No dilution air was used during the delivery of aerosolized solutions. During the 10 minute nebulization, approximately 1.8 mL of solution was nebulized. This was measured gravimetrically by comparing pre- and post-nebulization weights of the filled nebulizer.
The bronchoprotective effects of compounds administered via inhalation were evaluated using whole body plethysmography at 1.5, 24, 48 and 72 hours post-dose. Forty-five minutes prior to the start of the pulmonary evaluation, each guinea pig was anesthetized with an intramuscular injection of ketamine (43.75 mg/kg), xylazine (3.50 mg/kg) and acepromazine (1.05 mg/kg). After the surgical site was shaved and cleaned with 70% alcohol, a 2-5 cm midline incision of the ventral aspect of the neck was made. Then, the jugular vein was isolated and cannulated with a saline-filled polyethylene catheter (PE-50, Becton Dickinson, Sparks, Md.) to allow for intravenous infusions of a 0.1 mg/mL solution of acetylcholine (Ach), (Sigma-Aldrich, St. Louis, Mo.) in saline. The trachea was then dissected free and cannulated with a 14G teflon tube (#NE-014, Small Parts, Miami Lakes, Fla.). If required, anesthesia was maintained by additional intramuscular injections of the aforementioned anesthetic cocktail. The depth of anesthesia was monitored and adjusted if the animal responded to pinching of its paw or if the respiration rate was greater than 100 breaths/minute.
Once the cannulations were complete, the animal was placed into a plethysmograph (#PLY3114, Buxco Electronics, Inc., Sharon, Conn.) and an esophageal pressure cannula was inserted to measure pulmonary driving pressure (pressure). The teflon tracheal tube was attached to the opening of the plethysmograph to allow the guinea pig to breathe room air from outside the chamber. The chamber was then sealed.
Once it was determined that baseline values were within the range 0.3-0.9 mL/cm H2O for compliance and within the range 0.1-0.199 cm H2O/mL per second for resistance, the pulmonary evaluation was initiated. A Buxco pulmonary measurement computer program enabled the collection and derivation of pulmonary values. Starting this program initiated the experimental protocol and data collection. The changes in volume over time that occurred within the plethysmograph with each breath were measured via a Buxco pressure transducer. By […] this signal over time, a measurement of flow was calculated for each breath. This signal, together with the pulmonary driving pressure changes, which were collected using a Sensym pressure transducer (#TRD4100), was connected via a Buxco (MAX 2270) preamplifier to a data collection interface (#'s SFT3400 and SFT3813). All other pulmonary parameters were derived from these two inputs.
Baseline values were collected for 5 minutes, after which time the guinea pigs were challenged with Ach. […]

[3] = molecular target: T1, human β2 adrenergic receptor; assay: Whole-cell cAMP Flashplate assay, lung epithelial cell line BEAS-2B endogenously expressing receptor (Test C); format: cell-based
Description: For the determination of agonist potencies and efficacies (intrinsic activities) in a cell line expressing endogenous levels of β2 adrenergic receptor, a human lung epithelial cell line (BEAS-2B) was used (ATCC CRL-9609, American Type Culture Collection, Manassas, Va.) (January B, et al., British Journal of Pharmacology, 1998, 123, 4, 701-11). Cells were grown to 75-90% confluency in complete, serum-free medium (LHC-9 MEDIUM containing Epinephrine and Retinoic Acid, cat #181-500, Biosource International, Camarillo, Calif.). The day before the assay, medium was switched to LHC-8 (No epinephrine or retinoic acid, cat #141-500, Biosource International, Camarillo, Calif.). […]
On the day of the assay, cells were rinsed with PBS, lifted by scraping with 5 mM EDTA in PBS, and counted. […]
Compounds were tested in the assay at 10 different concentrations, ranging from 10 μM to […]. Maximal response was determined in the presence of 10 μM Isoproterenol. […] Plates were sealed, incubated over night at 4° C. and counted the next morning in a topcount scintillation counter (Packard BioScience Co., Meriden, Conn.). The amount of cAMP produced per mL of reaction was calculated based on the counts observed for samples and cAMP standards, as described in the manufacturer's user manual. […]

T1 sequence (P07550 whole entry): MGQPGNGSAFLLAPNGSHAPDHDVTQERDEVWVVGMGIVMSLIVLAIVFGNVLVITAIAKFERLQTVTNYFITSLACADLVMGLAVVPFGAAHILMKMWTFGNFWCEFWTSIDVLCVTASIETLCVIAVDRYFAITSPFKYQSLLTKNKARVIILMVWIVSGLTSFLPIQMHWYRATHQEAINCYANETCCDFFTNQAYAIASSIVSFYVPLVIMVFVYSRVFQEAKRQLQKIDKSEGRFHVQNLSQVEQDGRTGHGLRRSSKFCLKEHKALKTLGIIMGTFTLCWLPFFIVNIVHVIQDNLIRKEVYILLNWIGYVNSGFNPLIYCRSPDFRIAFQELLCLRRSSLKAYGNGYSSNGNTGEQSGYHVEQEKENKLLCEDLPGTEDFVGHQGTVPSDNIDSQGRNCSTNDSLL
T2 sequence (P07550 whole entry): as above

pKi [1] | Selectivity β2/β1 (binding) [1] | pEC50 (human β2-adrenoceptor) | Selectivity β2/β1 (functional) (human β2-adrenoceptor) | Selectivity β2/β3 (functional) (human β2-adrenoceptor) | pEC50 ([3]; BEAS-2B endogenous cell line, cAMP) | Emax ([3]; BEAS-2B, Emax relative to 10 μM isoproterenol, read-out: % Efficacy) [%] | SMILES | Activity at 1.5 hours post dose [2] | Activity at 72 hours post dose [2] | Activity at 72 hours post dose ([2]; listed as comparison compound) | Activity at 72 hours post dose ([2]; listed as compound of the invention)
9.10 | 76 | 10.30 | 54 | 370 |  |  | O=c1ccc2c([C@@H](O)CNCCCCCCOCCc3ccccc3)ccc(O)c2[nH]1 [Comparison Compound, 8-hydroxy-5-[(R)-1-hydroxy-2-(6-phenethyloxy-hexylamino)ethyl]-1H-quinolin-2-one, reference compound] | Yes | No | not active | 
7.60 | 18 | 9.50 | 107 | 3900 | 8.50 | 68 | O=c1ccc2c([C@@H](O)CNCCCCCCNCCc3ccccc3)ccc(O)c2[nH]1 [Compound of the Invention, 8-hydroxy-5-[(R)-1-hydroxy-2-(6-phenethylamino-hexylamino)ethyl]-1H-quinolin-2-one] | Yes | Yes |  | demonstrated bronchoprotection
